Experimental data from patent US4990663A, “Process for preparing halogenated aromatic amines” (E. I. Du POnt de Nemours and Company, priority 1989, dated 1991).

Columns and labels:
[1] = dechlorination in platinum-catalyzed hydrogenation, semi-continuous reactor; conditions: for Dechlor: ppm based on weight of product amine
Description: The autoclave was sealed, the air was displaced with nitrogen and the autoclave was pressure tested. The nitrogen was replaced with hydrogen and the contents of the autoclave were heated to 80° C. The agitation was started and the contents of the autoclave were heated to 100° C. The pressure control regulator on the hydrogen feed was set at 540 psig and this pressure maintained in the autoclave throughout the reduction. The addition of 510 g of 3,4-dichloro-1-nitrobenzene crude (containing 11% 2,3- and 1% 2,5- isomers) was started. During the simultaneous feeding of the hydrogen and the nitroaromatic, the temperature was allowed to rise to 135° C. where it was controlled by the automated cooling water system. The addition of the nitroaromatic was completed in about 120 minutes. […] Heating at reaction conditions was continued for an additional 15 minutes. The autoclave was cooled, the hydrogen was displaced with nitrogen and the organic phase was separated.

[2] = per literature data; cited from earlier work
[3] = dehalogenation inhibitor evaluation in laboratory batch hydrogenation
Description: The autoclave was sealed, the air was displaced with nitrogen and the autoclave was pressure tested. The nitrogen was replaced with hydrogen and the contents of the autoclave were heated to 75° C. The agitation was started and the pressure control regulator on the hydrogen feed was set to a maximum of 500 psig. […] The reduction was terminated. The autoclave was cooled, the hydrogen was displaced with nitrogen and the organic phase was separated.
Hydrogenation temperature was controlled at 110° C. instead of 96° C.

[4] = storage stabilization of molten 3,4-dichloroaniline at 110° C.; conditions: 0.43 wt. % additive
Description: Round bottom drying ampuls of 20 ml capacity were dried by heating and were then cooled under nitrogen. Ten ml of test samples consisting of molten 3,4-dichloroaniline containing candidate stabilizers were pipetted into the ampuls which were sealed under nitrogen and stored in a 110° C. oven. Periodically an ampul of each sample was removed from the oven and evaluated.

[5] = 2.1 mole % inhibitor based on nitroaromatic
[6] = 2.0 mole % inhibitor based on nitroaromatic

OCCNCCO [diethanolamine]
Dechlor [1, 5]: 344 ppm | pKb [2]: 5.0

NCCCO [3-amino-1-propanol]
Dechlor [1, 6]: 423 ppm | pKb [2]: 4.1

COCCN [2-methoxyethylamine]
Dechlor [1, 6]: 282 ppm | dechlorinated derivatives in product amine ([3]; Example 10, 1.0 weight % inhibitor, otherwise as Example 8): 0.05% | dehalogenation inhibition ([3]; batch, similar conditions (96° C.)): good dehalogenation inhibitor being approximately equivalent to morpholine | Color ([4]; 7 days): Lt yellow | High Boilers ([4]; 7 days): 0.05 Weight % | Color ([4]; 60 days): Yellow | High Boilers ([4]; 60 days): 0.07 Weight % | pKb [2]: 4.6

NCCO [ethanolamine]
dechlorination (total of aniline and monochloroanilines in the product calculated as p-chloroaniline) ([1]; Example 1, 0.4 weight % and 1.2 mole % inhibitor based on nitroaromatic, 135° C., 540 psig): less than 235 ppm | dechlorination (total of aniline and monochloroanilines calculated as p-chloroaniline) ([3]; Example 8, 0.5 weight % inhibitor, 96° C., 7.9 mg platinum, terminated at 188 minutes): 0.03% | dechlorinated derivatives in product amine ([3]; Example 9, 0.375 weight % inhibitor, 110° C., 15.8 mg platinum): 0.003% | dehalogenation ([3]; batch, 96° C., concentrations near optimum for semicontinuous unit): very low

COCCCN [3-methoxy-1-propylamine]
Dechlor ([1]; 2.5 mole % inhibitor based on nitroaromatic): 438 ppm

CC(O)CN (stereo not shown) [1-amino-2-propanol]
Dechlor ([1]; 1.5 mole % inhibitor based on nitroaromatic): 470 ppm

C1COCCN1 [morpholine, reference compound]
Dechlor [1, 5]: 548 ppm
